Data from patent publication US20220055989A1, “CONDENSED PYRROLES AS NOVEL BROMODOMAIN INHIBITORS” (ALBERT LUDWING UNIVERSITÄT FREIBURG, priority 2018, published 2022).

Legend:
BRD7 = biological target: T1, BRD7 (Homo sapiens, UniProt Q9NPI1); assay: Bromodomain assay % Ctrl determination BRD7; conditions: lower numbers indicate a stronger binding
T1 construct: T7 phage strains displaying bromodomains were grown; host or cells: T7 phage in E. coli derived from BL21
T1 sequence (Q9NPI1 131-235 limits assumed): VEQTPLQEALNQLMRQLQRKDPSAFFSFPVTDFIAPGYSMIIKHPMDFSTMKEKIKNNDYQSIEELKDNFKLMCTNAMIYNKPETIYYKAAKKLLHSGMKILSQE
Protocol: (§1) Compounds that bind the bromodomain prevent its binding to the immobilized ligand thus reducing the amount of protein captured. […] Hits are identified by measuring the amount of bromodomain captured in test versus control samples. Bromodomain assays for % Ctrl determination: T7 phage strains displaying bromodomains were grown in parallel in 24-well blocks in an E. coli host derived from the BL21 strain. E. coli were grown to log-phase and infected with T7 phage from a frozen stock (multiplicity of infection=0.4) and incubated with shaking at 32° C. until lysis (90-150 minutes). The lysates were centrifuged (5,000×g) and filtered (0.2 μm) to remove cell debris. […] The liganded beads were blocked with excess biotin and washed with blocking buffer (SeaBlock (Pierce), 1% BSA, 0.05% Tween 20, 1 mM DTT) to remove unbound ligand and to reduce non-specific phage binding. […] Test compounds were prepared as 1000× stocks in 100% DMSO and subsequently diluted 1:25 in monoethylene glycol (MEG). The compounds were then diluted directly into the assays such that the final concentrations of DMSO and MEG were 0.1% and 2.4%, respectively. All reactions were performed in polypropylene 384-well plates in a final volume of 0.02 ml. […] The bromodomain concentration in the eluates was measured by qPCR. […]

BRDT(2) = biological target: T2, BRDT(2) (Homo sapiens, UniProt Q58F21); assay: Bromodomain assay % Ctrl determination BRDT(2); conditions: lower numbers indicate a stronger binding
T2 construct: T7 phage strains displaying bromodomains were grown; host or cells: T7 phage in E. coli derived from BL21
Protocol: as §1

TAF1L(2) [1] = biological target: T3, TAF1L(2) (Homo sapiens, UniProt Q8IZX4); assay: Bromodomain assay % Ctrl determination TAF1L(2); conditions: lower numbers indicate a stronger binding
T3 construct: FALZ, PBRM1-BD2, BPRM1-BDS, TAF1-BD2, TAF1L-BD2; host or cells: T7 phage grown in E. coli host derived from BL21
T3 sequence (Q8IZX4 1517-1626 limits assumed): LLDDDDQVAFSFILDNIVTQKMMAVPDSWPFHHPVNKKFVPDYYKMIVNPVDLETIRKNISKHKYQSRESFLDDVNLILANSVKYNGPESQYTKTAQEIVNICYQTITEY
Protocol: as §1

PBRM1(2) = biological target: T4, PBRM1(2) (Homo sapiens, UniProt Q86U86); assay: Bromodomain assay % Ctrl determination PBRM1(2); conditions: lower numbers indicate a stronger binding
T4 construct: FALZ, PBRM1-BD2, BPRM1-BDS, TAF1-BD2, TAF1L-BD2; host or cells: T7 phage grown in E. coli host derived from BL21
T4 sequence (Q86U86 177-287 limits assumed): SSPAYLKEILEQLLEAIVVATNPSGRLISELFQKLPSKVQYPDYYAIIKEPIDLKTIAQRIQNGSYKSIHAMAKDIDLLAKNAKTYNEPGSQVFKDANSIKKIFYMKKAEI
Protocol: as §1

BRD3(2) = biological target: T5, BRD3(2) (Homo sapiens, UniProt Q15059); assay: Bromodomain assay % Ctrl determination BRD3(2); conditions: lower numbers indicate a stronger binding
T5 construct: T7 phage strains displaying bromodomains were grown in parallel; made in house; host or cells: T7 phage grown in an E. coli host derived from the BL21 strain
T5 sequence (Q15059 306-415 limits assumed): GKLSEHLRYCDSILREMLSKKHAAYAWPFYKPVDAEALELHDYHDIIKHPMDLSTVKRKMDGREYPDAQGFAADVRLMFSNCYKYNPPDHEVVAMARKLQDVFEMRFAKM
Protocol: as §1

GCN5L2 = biological target: T6, GCN5L2 (Homo sapiens, UniProt Q92830); assay: Bromodomain assay % Ctrl determination GCN5L2; conditions: lower numbers indicate a stronger binding
T6 construct: T7 phage strains displaying bromodomains were grown in parallel; host or cells: T7 phage grown in E. coli host derived from BL21
T6 sequence (Q92830 728-832 limits assumed): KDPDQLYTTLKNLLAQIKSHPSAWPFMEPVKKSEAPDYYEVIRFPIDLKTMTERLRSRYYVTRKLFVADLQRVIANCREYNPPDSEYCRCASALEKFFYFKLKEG
Protocol: as §1

FALZ = biological target: T7, FALZ (Homo sapiens, UniProt Q12830); assay: Bromodomain assay % Ctrl determination FALZ; conditions: lower numbers indicate a stronger binding
T7 construct: T7 phage strains displaying bromodomains were grown in parallel; host or cells: T7 phage grown in E. coli host derived from BL21
Protocol: as §1

BRD1 = biological target: T8, BRD1 (Homo sapiens, UniProt O95696); assay: Bromodomain assay % Ctrl determination BRD1; conditions: lower numbers indicate a stronger binding
T8 construct: T7 phage strains displaying bromodomains were grown in parallel; made in house; host or cells: T7 phage grown in an E. coli host derived from the BL21 strain
T8 sequence (O95696 562-666 limits assumed): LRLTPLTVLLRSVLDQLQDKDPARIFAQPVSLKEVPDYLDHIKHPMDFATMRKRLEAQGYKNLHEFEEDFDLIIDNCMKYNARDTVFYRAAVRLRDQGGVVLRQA
Protocol: as §1

BRD8(1) = biological target: T9, BRD8(1) (Homo sapiens, UniProt Q9H0E9); assay: BROMOscan Kd determination BRD8(1); assay type: binding
T9 construct: T7 phage strains displaying bromodomains were grown; host or cells: T7 phage in E. coli derived from BL21
T9 sequence (Q9H0E9 706-811 limits assumed): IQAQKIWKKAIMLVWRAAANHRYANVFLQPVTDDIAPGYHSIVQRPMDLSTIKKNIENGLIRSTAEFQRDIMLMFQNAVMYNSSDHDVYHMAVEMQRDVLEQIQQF
Protocol: (§2) Bromodomain profiling was carried out on the basis of BROMOscan™. This platform accounted for the indirect determination of the dissociation constants between 19 bromodomains and the compound of formula (13), by binding competition against a reference immobilized ligand. Compounds that bind the bromodomain prevent its binding to the immobilized ligand thus reducing the amount of protein captured. […] Hits are identified by measuring the amount of bromodomain captured in test versus control samples. Bromodomain assays for Kd determination: T7 phage strains displaying bromodomains were grown in parallel in 24-well blocks in an E. coli host derived from the BL21 strain. E. coli were grown to log-phase and infected with T7 phage from a frozen stock (multiplicity of infection=0.4) and incubated with shaking at 32° C. until lysis (90-150 minutes). The lysates were centrifuged (5,000×g) and filtered (0.2 μm) to remove cell debris. […] Kds were determined using an 11-point 3-fold compound dilution series with one DMSO control point. […] The bromodomain concentration in the eluates was measured by qPCR. […] Most Kds were determined using a compound top concentration=10,000 nM. […] Binding Constants (Kds): Binding constants (Kds) were calculated with a standard dose-response curve using the Hill equation: The Hill Slope was set to −1. […]

TAF1L(2) [2] = biological target: T3, TAF1L(2); assay: BROMOscan Kd determination TAF1L(2); assay type: binding
Protocol: as §2

CREBBP = biological target: T10, CREBBP (Homo sapiens, UniProt Q92793); assay: BROMOscan Kd determination CREBBP; assay type: binding
T10 construct: T7 phage strains displaying bromodomains were grown; host or cells: T7 phage in E. coli derived from BL21
T10 sequence (Q92793 1085-1192 limits assumed): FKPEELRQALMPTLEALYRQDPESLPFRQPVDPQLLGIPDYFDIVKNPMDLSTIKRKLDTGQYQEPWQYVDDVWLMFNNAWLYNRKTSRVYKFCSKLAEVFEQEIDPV
Protocol: as §2

BAZ2B = biological target: T11, BAZ2B (Homo sapiens, UniProt Q9UIF8); assay: BROMOscan Kd determination BAZ2B; assay type: binding
T11 construct: T7 phage strains displaying bromodomains were grown in parallel; made in house; host or cells: T7 phage grown in an E. coli host derived from the BL21 strain
T11 sequence (Q9UIF8 2060-2164 limits assumed): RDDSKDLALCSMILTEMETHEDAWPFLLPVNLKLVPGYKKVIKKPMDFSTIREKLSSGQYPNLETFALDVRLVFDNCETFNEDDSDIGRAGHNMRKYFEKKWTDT
Protocol: as §2

PBRM1(5) = biological target: T12, PBRM1(5) (Homo sapiens, UniProt Q86U86); assay: BROMOscan Kd determination PBRM1(5); assay type: binding
T12 construct: T7 phage strains displaying bromodomains were grown in parallel; host or cells: T7 phage grown in E. coli host derived from BL21
T12 sequence (Q86U86 653-763 limits assumed): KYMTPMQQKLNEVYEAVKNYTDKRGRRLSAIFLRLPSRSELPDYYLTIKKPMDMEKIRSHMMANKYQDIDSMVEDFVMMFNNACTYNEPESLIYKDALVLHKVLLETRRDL
Protocol: as §2

BRD4(1, 2) = biological target: T13, BRD4(1, 2) (Homo sapiens, UniProt O60885); assay: BROMOscan Kd determination BRD4(1, 2); assay type: binding
T13 construct: T7 phage strains displaying bromodomains were grown in parallel; made in house; host or cells: T7 phage grown in an E. coli host derived from the BL21 strain
Protocol: as §2

BRD4(short-iso.) = biological target: T14, BRD4(short-iso.) (Homo sapiens, UniProt O60885); assay: BROMOscan Kd determination BRD4(short-iso.); assay type: binding
T14 construct: host or cells: T7 phage in E. coli derived from BL21
Protocol: as §2

TRIM24 (Bromo.) = biological target: T15, TRIM24 (Bromo.) (Homo sapiens, UniProt O15164); assay: BROMOscan Kd determination TRIM24 (Bromo.); assay type: binding
T15 construct: T7 phage strains displaying bromodomains were grown in parallel; host or cells: T7 phage grown in E. coli host derived from BL21
T15 sequence (O15164 899-1004 limits assumed): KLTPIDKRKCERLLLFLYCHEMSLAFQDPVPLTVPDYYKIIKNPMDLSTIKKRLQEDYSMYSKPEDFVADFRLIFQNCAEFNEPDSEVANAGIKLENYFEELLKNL
Protocol: as §2

% Ctrl @ 10 000 nM BRD7 (BRD7) | % Ctrl @ 10 000 nM BRDT(2) (BRDT(2)) | % Ctrl @ 10 000 nM TAF1L(2) (TAF1L(2) [1]) | % Ctrl @ 10 000 nM PBRM1(2) (PBRM1(2)) | % Ctrl @ 10 000 nM BRD3(2) (BRD3(2)) | % Ctrl @ 10 000 nM GCN5L2 (GCN5L2) | % Ctrl @ 10 000 nM FALZ (FALZ) | % Ctrl @ 10 000 nM BRD1 (BRD1) | Kd (BRD8(1)) | Kd (TAF1L(2) [2]) | Kd (CREBBP) | Kd (BAZ2B) | Kd (PBRM1(5)) | Kd (BRD4(1, 2)) | Kd (BRD4(short-iso.)) | Kd (TRIM24 (Bromo.)) | Compound
0 % Ctrl | 0.65 % Ctrl | 40 % Ctrl | 75 % Ctrl | 0 % Ctrl | 44 % Ctrl | 6.8 % Ctrl | 26 % Ctrl |  |  |  |  |  |  |  |  | COc1ccc(S(=O)(=O)N2CCOCC2)cc1NC(=O)c1[nH]c(C)c2c1CCCCC2=O [Compound 13, N-(2-methoxy-5-(morpholinosulfonyl)phenyl)-3-methyl-4-oxo-2,4,5,6,7,8-hexahydrocyclohepta[c]pyrrole-1-carboxamide]
 |  |  |  |  |  |  |  | 2600 nM | 6800 nM | 420 nM | 1800 nM | 3800 nM | 160 nM | 180 nM | 1400 nM | Cc1[nH]c(-c2cc(N)ccc2Cl)c2c1C(=O)CCCC2 [Compound 23]
